# Publication PMC10808981, “Synthesis and structure–activity relationships of aryl fluorosulfate-based inhibitors as novel antitubercular agents” (Bioorganic & Medicinal Chemistry Letters, 2024)
# Where two headings read alike, the source gives them in different places.
# Columns and labels:
# Mtb H37Rv = assay: MIC determination in Mtb H37Rv, Microdilution Alamar Blue Assay (MABA); assay type: cell-based, Mycobacterium tuberculosis
# HEK293T cells = assay: HEK293T cytotoxicity assay (Cell Titer-Glo); assay type: cell-based; details: for CC50: HEK293T, 3 days
# Experimental: (§1) HEK293T (ATCC) were grown in DMEM (Gibco Cat # 11965-092) supplemented with 10% heat-inactivated FBS, Pen Strep (Gibco) 1X in a 5% CO2 humidified atmosphere at 37◦C. Cells were washed once with DPBS 1X (Gibco), incubated for less than 5 minutes at room temperature in TrypLE solution (Gibco), washed once in propagation medium to remove trypsin, and counted with Trypan Blue. 5 µL of cell suspension ([…]) was dispensed into 1536-well plates containing serial 3-fold drug dilution ranging from 40 µM to 2 nM and incubated for 3 days in a 5% CO2 humidified atmosphere at 37 ◦C. Cell Titer-Glo® Luminescent Cell Viability Assay (Promega) reagent was diluted 1:1 with water and then 2 µL were added to plates. Luminescence was measured in a PHERAStar plate reader (BMG Labtech) and data normalized to negative control (DMSO) minus inhibitor (Puromycin 10 µM). Dose-response curves were fit using the Smart Fit function in Genedata Screener Analyzer (v16.0.8).
# HepG2 cells = details: for CC50: read-out: HepG2 CC50, HepG2, 3 days
# Mtb H37Ra = assay: microbe, parasite or virus in culture; assay type: cell-based; details: Mycobacterium tuberculosis, 168 h, read-out: H37Ra IC50
# Mtb CDC1551 = assay: Anti-TB activity against Mtb CDC1551 (IC90), Alamar Blue; assay type: cell-based; details: Mycobacterium tuberculosis
# [1] = HEK293T cytotoxicity assay (Cell Titer-Glo); assay type: cell-based; details: human, HEK293T cells; HEK293T, 3 days
# Experimental: as §1
# in vitro [2] = details: human
# [3] = mouse
# in vivo = details: mouse
# in vitro [4] = details: mouse, plasma
# in vitro [5] = details: mouse, po, 20 mg/kg
# [6] = Mycobacterium tuberculosis, H37RV, 168 h, Mtb H37Rv, MABA, 7 days
compound,measurement,setting,value
"4-((2,6-difluoro-4-(1H-1,2,3-triazol-1-yl)benzyl)oxy)phenyl sulfurofluoridate [Compound 3 m]",MIC,"Mtb H37Rv; Mtb H37Rv, MABA, 7 days",0.22 µM
same,CC50,HEK293T cells,> 40 µM
same,CC50,HepG2 cells,> 40 µM
"4-((2,6-difluoro-4-(3-isopropyl-1H-1,2,4-triazol-1-yl)benzyl)oxy)phenyl sulfurofluoridate [Compound 20 h]",MIC,"Mtb H37Rv; Mtb H37Rv, MABA, 7 days",0.31 µM
same,CC50,HEK293T cells,> 40 µM
same,CC50,HepG2 cells,> 40 µM
CC(=O)Nc1ccc(COc2ccc(OS(=O)(=O)F)cc2)cc1 [Compound 2],IC50,Mtb H37Ra,1.3 µM
"O=S(=O)(F)Oc1ccc(OCc2ccc(-n3cncn3)cc2)cc1 [Compound 3a, 4-((4-(1H-1,2,4-triazol-1-yl)benzyl)oxy)phenyl sulfurofluoridate]",MIC,Mtb H37Rv; [6],2.84 µM
same,IC90,Mtb CDC1551,4.71 µM
same,IC50,Mtb H37Ra,1.5 µM
same,CC50 at 72 h,[1],11.6 µM
same,CC50 at 72 h,in vitro [2],19.3 µM
"COc1cc(OCc2ccc(-n3cncn3)cc2)ccc1OS(=O)(=O)F [Compound 3b, 4-((4-(1H-1,2,4-triazol-1-yl)benzyl)oxy)-2-methoxyphenyl sulfurofluoridate]",anti-TB activity against Mtb (in words),Mtb H37Rv,not active
same,MIC,Mtb H37Rv; [6],25 µM
same,IC90,Mtb CDC1551,> 30 µM
same,CC50 at 3 days,[1],> 40 µM
same,CC50 at 72 h,in vitro [2],13.3 µM
"O=S(=O)(F)Oc1ccc(OCc2ccc(-n3cncn3)cc2)cc1Cl [Compound 3c, 4-((4-(1H-1,2,4-triazol-1-yl)benzyl)oxy)-2-chlorophenyl sulfurofluoridate]",IC90,Mtb CDC1551,4.64 µM
same,CC50 at 72 h,[1],3.7 µM
same,cytotoxicity against HEK293T (in words),HEK293T cells,exhibited cytotoxicity
same,cytotoxicity against HepG2 (in words),HepG2 cells,exhibited cytotoxicity
same,CC50 at 72 h,in vitro [2],5.8 µM
"O=S(=O)(F)Oc1ccc(OCc2ccc(-n3cncn3)cc2F)cc1 [Compound 3d, 4-((2-fluoro-4-(1H-1,2,4-triazol-1-yl)benzyl)oxy)phenyl sulfurofluoridate]",MIC,Mtb H37Rv; [6],0.6 µM
same,IC90,Mtb CDC1551,1.3 µM
same,CC50 at 72 h,[1],22.7 µM
same,CC50 at 72 h,in vitro [2],12.5 µM
"O=S(=O)(F)Oc1ccc(OCc2c(F)cc(-n3cncn3)cc2F)cc1 [Compound 3i, 4-((2,6-difluoro-4-(1H-1,2,4-triazol-1-yl)benzyl)oxy)phenyl sulfurofluoridate]",MIC,Mtb H37Rv; [6],0.6 µM
same,CC50 at 3 days,[1],> 40 µM
same,selectivity index (SI),HepG2 cells; HepG2 cytotoxicity vs H37Rv MIC,9.6
same,CC50 at 72 h,in vitro [2],5.8 µM
"CC(=O)Nc1ncn(-c2cc(F)c(COc3ccc(OS(=O)(=O)F)cc3)c(F)c2)n1 [Compound 21a, 4-((4-(3-acetamido-1H-1,2,4-triazol-1-yl)-2,6-difluorobenzyl)oxy)phenyl sulfurofluoridate]",MIC,Mtb H37Rv; [6],0.15 µM
same,CC50 at 3 days,[1],> 40 µM
same,CC50,in vitro [2],> 40 µM
"CS(=O)(=O)Nc1ncn(-c2cc(F)c(COc3ccc(OS(=O)(=O)F)cc3)c(F)c2)n1 [Compound 21b, 4-((2,6-difluoro-4-(3-(methylsulfonamido)-1H-1,2,4-triazol-1-yl)benzyl)oxy)phenyl sulfurofluoridate]",H37Rv MIC,"Mtb H37Rv; Mtb H37Rv, MABA, 7 days",0.06 ± 0.019 µM
same,MIC,"Mtb H37Rv; Mycobacterium tuberculosis, H37RV",0.028 µg/mL
same,MIC,Mtb H37Rv; [6],0.06 µM
same,CC50 at 3 days,[1],> 40 µM
same,cytotoxicity against HEK293T (in words),HEK293T cells,no cytotoxicity
same,cytotoxicity against HepG2 (in words),HepG2 cells,no cytotoxicity
same,coverage of plasma and lung levels above the H37Rv MIC,"[3]; 20 mg/kg PO, total levels",~24 h
same,unbound levels of plasma and lung coverage over MIC,"[3]; 20 mg/kg PO, unbound levels",~8 h
same,AUC0-24,[3]; IV 3 mg/kg,"7,085 hr*ng/mL"
same,Cl,[3]; IV 3 mg/kg,7.05 mL/min/kg
same,T1/2,[3]; IV 3 mg/kg,3.93 h
same,Vd,[3]; IV 3 mg/kg,2.38 L/kg
same,AUC0-24,[3]; PO 20 mg/kg,"47,615 hr*ng/mL"
same,T1/2,[3]; PO 20 mg/kg,2.57 h
same,Tmax,[3]; PO 20 mg/kg,1.00 h
same,Clung at 8 h,"[3]; PO 20 mg/kg, lung, 8 h","1,596 ng/mL"
same,Clung at 24 h,"[3]; PO 20 mg/kg, lung, 24 h",14.1 ng/mL
same,Cplasma at 8 h,"[3]; PO 20 mg/kg, plasma, 8 h","2,120 ng/mL"
same,Cplasma at 24 h,"[3]; PO 20 mg/kg, plasma, 24 h",22.6 ng/mL
same,Cmax,"[3]; in vivo, po, 20 mg/kg","9,290 ng/mL"
same,Cmax,"in vivo; iv, 3 mg/kg",3310 ng/mL
same,bioavailability,"in vivo; po, 20 mg/kg",99.4%
same,CC50,in vitro [2],> 40 µM
same,fraction unbound,in vitro [4],0.008
same,fraction unbound,in vitro [5],0.016
"CC(C)S(=O)(=O)Nc1ncn(-c2cc(F)c(COc3ccc(OS(=O)(=O)F)cc3)c(F)c2)n1 [Compound 21e, 4-((2,6-difluoro-4-(3-((1-methylethyl)sulfonamido)-1H-1,2,4-triazol-1-yl)benzyl)oxy)phenyl sulfurofluoridate]",MIC,Mtb H37Rv; [6],0.31 µM
same,CC50 at 3 days,[1],> 40 µM
same,CC50,in vitro [2],> 40 µM
"CC(C)(C)S(=O)(=O)Nc1ncn(-c2cc(F)c(COc3ccc(OS(=O)(=O)F)cc3)c(F)c2)n1 [Compound 21f, 4-((4-(3-((1,1-dimethylethyl)sulfonamido)-1H-1,2,4-triazol-1-yl)-2,6-difluorobenzyl)oxy)phenyl sulfurofluoridate]",MIC,Mtb H37Rv; [6],2.5 µM
same,CC50 at 3 days,[1],> 40 µM
same,CC50,in vitro [2],> 40 µM
